This test concerns microscopic organisms. Description: Antimicrobial effect of ICG under irradiation with light (photodynamic), infections on gingiva and teeth. The settings on record: more particularly laser light, wavelength 780 to 830 nm.

Structures are written as SMILES.

Regarding `CC1(C)C(/C=C/C=C/C=C/C=C2\N(CCCCS(=O)(=O)O)c3ccc4ccccc4c3C2(C)C)=[N+](CCCCS(=O)(=O)[O-])c2ccc3ccccc3c21` [ICG, Indocyanine green], the “effect against microscopic organisms, more particularly an antimicrobial effect” value is recorded as “outstanding effect”.

For the origin of these results see US20120172408A1, “ACTIVE INGREDIENT COMPRISING INDOCYANINE GREEN AND/OR INFRACYANINE GREEN” (A.R.C. LASER GMBH, priority 2011, published 2012).
